Columns and labels:
Format in all cases: in vivo
Meloidogyne incognita = Meloidogyne incognita test (sand, lettuce, gall formation); conditions: Meloidogyne incognita, 336 h, 20 ppm, after 14 days; read-out: nematicidal efficacy (formation of galls)
Procedure, shortened: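 Vessels held sand, diluted compound solution, M. incognita egg/larvae suspension and lettuce seeds, and the plants grew for 14 days. Efficacy in % came from root gall formation: 100% means no galls, 0% means galls equal to the untreated control.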

Myzus persicae [1] = experiment: Myzus persicae oral test; conditions: 120 h, after 5 days, read-out: efficacy
Experimental: Myzus persicae—Oral Test [table] To produce a suitable active compound preparation, 1 part by weight of active compound is dissolved with the stated parts by weight of solvent and made up to the desired concentration with water. 50 μl of the active compound preparation are transferred into microtitre plates and made up to a final volume of 200 μl with 150 μl of IPL41 insect medium (33%+15% sugar). Subsequently, the plates are sealed with parafilm, which a mixed population of green peach aphids (Myzus persicae) within a second microtitre plate is able to puncture and imbibe the solution through it. After 5 days, the efficacy in % is determined. 100% means that all the aphids have been killed; 0% means that no aphids have been killed.

Myzus persicae [2] = experiment: Myzus persicae spray test (Chinese cabbage leaf discs); conditions: foliar, 144 h, after 6 days, read-out: efficacy
Experimental: Myzus persicae—Spray Test [table] To produce a suitable active compound preparation, 1 part by weight of active compound is dissolved with the specified parts by weight of solvent and made up to the desired concentration with water containing an emulsifier concentration of 1000 ppm. To produce further test concentrations, the formulation is diluted with emulsifier-containing water. Discs of Chinese cabbage leaves (Brassica pekinensis) infested by all stages of the green peach aphid (Myzus persicae) are sprayed with an active compound preparation of the desired concentration. After 6 days, the efficacy in % is determined. 100% means that all the aphids have been killed; 0% means that no aphids have been killed.

Cc1nc(C(=O)NS(=O)(=O)c2ccccc2Cl)cn1-c1c(F)cccc1F [I-004]
pest or weed control at 20 ppm (Meloidogyne incognita): 90% | pest or weed control at 20 ppm (Myzus persicae [1]): 70%

Cc1nc(C(=O)NS(=O)(=O)C(C)C)cn1-c1ccccc1Cl [I-006]
pest or weed control at 20 ppm (Meloidogyne incognita): 100% | pest or weed control at 500 g/ha (Myzus persicae [2]): 90%

N#Cc1c(C(=O)NS(=O)(=O)c2ccccc2Cl)ncn1CCC(F)(F)F [I-007]
pest or weed control at 20 ppm (Meloidogyne incognita): 70% | pest or weed control at 20 ppm (Myzus persicae [1]): 70%

COc1ccc(S(=O)(=O)NC(=O)c2ncn(CCC(F)(F)F)c2Br)cc1 [I-010]
pest or weed control at 20 ppm (Meloidogyne incognita): 90% | pest or weed control at 100 g/ha (Myzus persicae [2]; 100 g/ha): 90% | pest or weed control at 500 g/ha (Myzus persicae [2]): 70%

CCCn1cnc(C(=O)NS(=O)(=O)c2ccc(Cl)cc2)c1Cl [I-042]
pest or weed control at 20 ppm (Meloidogyne incognita): 100% | pest or weed control at 500 g/ha (Myzus persicae [2]): 70%

COc1ccc(Cl)c(S(=O)(=O)NC(=O)c2nc(C)n(-c3cc(Cl)cc(Cl)c3)c2Cl)c1 [I-106]
pest or weed control at 20 ppm (Meloidogyne incognita): 100% | pest or weed control at 4 ppm (Myzus persicae [1]; 4 ppm): 100%

Cn1cc(C(=O)NS(=O)(=O)c2ccccc2Cl)nc1Cc1ccccc1Cl [I-116]
pest or weed control at 20 ppm (Meloidogyne incognita): 90% | pest or weed control at 20 ppm (Myzus persicae [1]): 90% | pest or weed control at 500 g/ha (Myzus persicae [2]): 70%

CC(C)S(=O)(=O)NC(=O)c1cn(C)c(Cc2cccc(Cl)c2)n1 [I-120]
pest or weed control at 20 ppm (Meloidogyne incognita): 100% | pest or weed control at 500 g/ha (Myzus persicae [2]): 90%

Cn1nc(C(=O)NS(C)(=O)=O)cc1-c1cc(Cl)ccn1 [I-127]
pest or weed control at 20 ppm (Meloidogyne incognita): 70% | pest or weed control at 20 ppm (Myzus persicae [1]): 70% | pest or weed control at 500 g/ha (Myzus persicae [2]): 90%

O=C(NS(=O)(=O)c1ccc(Cl)cc1)c1cn(Cc2ccccc2Cl)cn1 [I-158]
pest or weed control at 20 ppm (Meloidogyne incognita): 100% | pest or weed control at 500 g/ha (Myzus persicae [2]): 90%

O=C(NS(=O)(=O)c1ccccc1)c1cn(-c2ccccc2OC(F)(F)F)cn1 [I-214]
pest or weed control at 20 ppm (Meloidogyne incognita): 90% | pest or weed control at 500 g/ha (Myzus persicae [2]): 70%

O=C(NS(=O)(=O)c1c(Cl)cccc1Cl)c1cn(-c2ccccc2F)cn1 [I-220]
pest or weed control at 20 ppm (Meloidogyne incognita): 100% | pest or weed control at 500 g/ha (Myzus persicae [2]): 70%

COc1ccc(Cl)c(S(=O)(=O)NC(=O)c2cn(-c3cc(F)cc(C(F)(F)F)c3)cn2)c1 [I-250]
pest or weed control at 20 ppm (Meloidogyne incognita): 100% | pest or weed control at 100 ppm (Myzus persicae [1]): 100%

Cc1nc(C(=O)NS(=O)(=O)c2c(Cl)cccc2Cl)cn1-c1ccccc1 [I-253]
pest or weed control at 20 ppm (Meloidogyne incognita): 100% | pest or weed control at 100 ppm (Myzus persicae [1]): 100% | pest or weed control at 500 g/ha (Myzus persicae [2]): 90%

Cc1ccc(S(=O)(=O)NC(=O)c2cn(-c3ccccc3)c(C)n2)cc1 [I-254]
pest or weed control at 20 ppm (Meloidogyne incognita): 100% | pest or weed control at 100 ppm (Myzus persicae [1]): 100% | pest or weed control at 500 g/ha (Myzus persicae [2]): 90%

Cc1nc(C(=O)NS(=O)(=O)c2ccccc2Cl)cn1-c1cccc(Cl)c1Cl [I-264]
pest or weed control at 20 ppm (Meloidogyne incognita): 90% | pest or weed control at 100 ppm (Myzus persicae [1]): 100% | pest or weed control at 500 g/ha (Myzus persicae [2]): 70%

COc1ccc(Cl)c(S(=O)(=O)NC(=O)c2cn(-c3ccccc3Cl)c(C)n2)c1 [I-266]
pest or weed control at 20 ppm (Meloidogyne incognita): 100% | pest or weed control at 20 ppm (Myzus persicae [1]): 90%

O=C(NS(=O)(=O)c1c(Cl)cccc1Cl)c1cn(-c2cc(Cl)cc(C(F)(F)F)c2)cn1 [I-286]
pest or weed control at 20 ppm (Meloidogyne incognita): 100% | pest or weed control at 20 ppm (Myzus persicae [1]): 90%

Cc1cc(-n2cnc(C(=O)NS(=O)(=O)c3c(Cl)cccc3Cl)c2)cc(C(F)(F)F)c1 [I-291]
pest or weed control at 20 ppm (Meloidogyne incognita): 90% | pest or weed control at 20 ppm (Myzus persicae [1]): 90%

COc1ccc(Cl)c(S(=O)(=O)NC(=O)c2cn(-c3cc(Cl)c(Br)c(Cl)c3)cn2)c1 [I-314]
pest or weed control at 20 ppm (Meloidogyne incognita): 90% | pest or weed control at 500 g/ha (Myzus persicae [2]): 70%

O=C(NS(=O)(=O)c1cc(Cn2cccn2)ccc1Cl)c1cn(-c2cc(Cl)cc(C(F)(F)F)c2)cn1 [I-346]
pest or weed control at 20 ppm (Meloidogyne incognita): 70% | pest or weed control at 500 g/ha (Myzus persicae [2]): 70%

Cc1nc(C(=O)NS(=O)(=O)c2c(F)cccc2NC(C)C)cn1-c1cc(F)cc(F)c1 [I-385]
pest or weed control at 20 ppm (Meloidogyne incognita): 100% | pest or weed control at 500 g/ha (Myzus persicae [2]): 70%

COc1ccc(Cl)c(S(=O)(=O)NC(=O)c2cn(-c3cc(Cl)cc(C(F)(F)F)c3)c(C(C)C)n2)c1 [I-401]
pest or weed control at 20 ppm (Meloidogyne incognita): 70% | pest or weed control at 500 g/ha (Myzus persicae [2]): 90%

O=C(NS(=O)(=O)c1c(Cl)cccc1Cl)c1nc(Cl)n(CCC(F)(F)F)c1Cl [I-451]
pest or weed control at 20 ppm (Meloidogyne incognita): 90%

Cc1ccccc1S(=O)(=O)NC(=O)c1nc(Cl)n(CCC(F)(F)F)c1Cl [I-452]
pest or weed control at 20 ppm (Meloidogyne incognita): 100%

CSc1cccc(Cl)c1S(=O)(=O)NC(=O)c1nc(Cl)n(CCC(F)(F)F)c1Cl [I-453]
pest or weed control at 20 ppm (Meloidogyne incognita): 100%

COc1ccc(Cl)cc1S(=O)(=O)NC(=O)c1nc(Cl)n(CCC(F)(F)F)c1Cl [I-454]
pest or weed control at 20 ppm (Meloidogyne incognita): 100%

COc1ccc(Br)c(S(=O)(=O)NC(=O)c2nc(Cl)n(CCC(F)(F)F)c2Cl)c1 [I-455]
pest or weed control at 20 ppm (Meloidogyne incognita): 100%

COc1ccc(F)c(S(=O)(=O)NC(=O)c2nc(Cl)n(CCC(F)(F)F)c2Cl)c1 [I-457]
pest or weed control at 20 ppm (Meloidogyne incognita): 100%

O=C(NS(=O)(=O)c1cc(C(F)(F)F)ccc1Cl)c1nc(Cl)n(CCC(F)(F)F)c1Cl [I-458]
pest or weed control at 20 ppm (Meloidogyne incognita): 100%
